# {Amino} = amino group added with ABI Aminolink 2 reagent, reacts with dyes such as Texas Red
# Tested on: not listed separately
# Assay: Conductivity measurements of transport buffers
# Type: physicochemical
# Details: not given
Molecule,Average/Std. Deviation (conductivity),Measurement 1 (conductivity),Measurement 2 (conductivity),Measurement 3 (conductivity)
"[Cl-].[Cl-].[Mg+2] [0.1 mM MgCl2, MgCl2]",17.3 +/− 0.87 μS/cm,16.9 μS/cm,16.7 μS/cm,18.3 μS/cm
"[Cl-].[Na+] [0.1 mM NaCl, NaCl]",9.43 +/− 0.93 μS/cm,8.80 μS/cm,8.98 μS/cm,10.5 μS/cm
"[Cl-].[Cl-].[Mg+2] [1 mM MgCl2, MgCl2]",186 +/− 18.8 μS/cm,174 μS/cm,208 μS/cm,177 μS/cm
"[Cl-].[Na+] [1 mM NaCl, NaCl]",112.7 +/− 2.08 μS/cm,112 μS/cm,115 μS/cm,111 μS/cm
"O=C([O-])CCC(=O)[O-].[Na+].[Na+] [5 mM NaSuccinate, NaSuccinate]",1.01 +/− 0.045 mS/cm,1.05 mS/cm,960 μS/cm,1.01 mS/cm
"NC(CO)(CO)CO [10 mM TRIS, TRIS]",572 +/− 10.5 μS/cm,572 μS/cm,562 μS/cm,583 μS/cm
"O=S(=O)(O)CCN1CCN(CCO)CC1 [25 mM HEPES, HEPES]",9.7 +/− 0.71 μS/cm,9.16 μS/cm,9.44 μS/cm,10.5 μS/cm
"N[C@@H](CS)C(=O)O [250 mM Cysteine, Cysteine]",22.7 +/− 5.09 μS/cm,27.4 μS/cm,17.3 μS/cm,23.5 μS/cm
NaPO4 [1 mM NaPO4],128.7 +/− 7.0 μS/cm,122 μS/cm,128 μS/cm,136 μS/cm
NaPO4 [10 mM NaPO4],1.44 +/− 0.04 mS/cm,1.40 mS/cm,1.44 mS/cm,1.48 mS/cm
NaPO4 [20 mM NaPO4],2.90 +/− 0.11 mS/cm,2.90 mS/cm,2.79 mS/cm,3.00 mS/cm

# Same assay, conditions: 20 mM sodium phosphate
row,Molecule,conductance [mS/cm]
1,"O=P(O)(O)O [NaPO4, Sodium Phosphate]",~2.9

# Same assay, conditions: 250 mM cysteine solution, pH 4 to 6 range
row,Molecule,conductance [μS/cm]
1,N[C@@H](CS)C(=O)O [Cysteine],~23

# Tested on: ET-10AL capture sequence
# Assay: Electronically controlled fluorescent DNA/dye (ethidium bromide) detection
# Type: binding
# Details: capture ET-10AL; peak EB fluorescence after positive bias 0.05 mA, 0.03 Volt-Hours
# Description: Microcapillary test devices were prepared and hybridized as described in Example 2 and 3. Ethidium bromide (EB) was added to the buffer solution (˜0.05 mM EB final concentration) and the test devices were biased negative to concentrate EB (positively charged) at both the hybridized and un-hybridized microlocations. The test devices were observed by epifluorescece microscopy at 550 nm excitation and 600 nm emission.
# The test devices were re-mounted biased positive
# constant current at 0.05 mA for 0.03 Volt-Hours, to selectively remove the EB. Fluorescence at the un-hybridized microlocations diminished while the hybridized microlocations retained a very high level of EB fluorescence. The results are given below:
# Fluorescent signal was measured using an ICCD imaging
# camera system and represent peak fluorescent intensities. The signal to noise ratio would be more than 1000 fold if the entire fluorescent signal area was integrated.
row,Molecule,Normalized Signal
1,"5′-Amino-CCT GCT CAT GAG TCT CTC (CCTGCTCATGAGTCTCTC; DNA, 5' {Amino}, backbone not given here; further chemistry not fully specified) [ET-11AL]",>200
2,"5′-Amino-TGCGAGCTGCAGTCAGACAT (TGCGAGCTGCAGTCAGACAT; DNA, 5' {Amino}, backbone not given here; further chemistry not fully specified) [ET-21A]",1

# Tested on: not given
# Assay: not given
# Details: not told
row,Molecule,pH above the surface of the permeation layer
1,N[C@@H](Cc1c[nH]cn1)C(=O)O [Histidine],> 5
2,c1c[nH]cn1 [imidazole],> 5

# Tested on: not given
# Assay: not given
# Details: cited from earlier work
Molecule,pKa (first listed),pKa (second listed),pKa (third listed)
Cn1cncc1C[C@H](N)C(=O)O [1(π)-methylhistidine],"1.64,","6.46,",8.61^3
Cn1cnc(C[C@H](N)C(=O)O)c1 [3(τ)-methylhistidine],"1.70,","5.87,",9.16^3
NCCC(=O)O [β-Alanine],–,10.19,–
